Patent publication US20020115678A1, “Compounds, compositions and methods for treating antibiotic-resistant infections” (priority 1996, published 2002)

How the values were obtained:
[1] = system: Staphylococcus aureus methicillin-sensitive ATCC 29213; experiment: Susceptibility test (MIC, microtiter serial dilution), methicillin-sensitive S. aureus; type: cell-based; details: methicillin-sensitive S. aureus ATCC 29213; MIC by serial dilution in Mueller-Hinton broth
Procedure: (§1) The strains were streaked on blood agar plates (trypticase soy broth containing 5% sheep cells). A single colony was isolated and grown in Mueller-Hinton Broth (MHB) as recommended by the national Committee for Clinical Laboratory Standards for rapidly growing bacteria. Candida species and related fungi were isolated in a similar manner on brain-heart infusion agar (BHI).
(§2) The antibiotic susceptibility profile of each strain was determined using standard microtiter dilution plates obtained from the Clinical Microbiology Laboratory at Ohio State University Hospitals. The Inocula were prepared by suspending a 4 hour log phase growth in MHB visually equal in turbidity of an 0.5 McFarland standard. Inocula were further diluted and added to microdilution trays to achieve a final density of approximately 1×10^5 CFU/ml. The trays were incubated for 16 to 20 hours at 35° C. The highest dilution at which wells remained clear was considered to be the minimum inhibitory concentration (MIC).
(§3) The MIC and minimum bacterial concentration (MBC) of the strains to the active agents were determined by two-fold dilutions in Mueller-Hinton broth. Susceptibility tests for ATCC-obtained microorganisms and clincal isolates of gram positive bacteria including methicillin-susceptible and resistant Staphylococci, Streptococci, Pneumococci and gram negative bacteria, including Enterobacteriaceae, Pseudomonas, Hemophilus and Neisseria, were performed in microtiter plates as described above. The MIC and MBC were determined after 48 hours incubation at 35-37° C. A sample of 0.01 ml was taken from each clear well at the MIC end-point and streaked on trypticase soy agar plates. After 24 hours incubation, the number of colonies was counted. The amount of the agent required to kill 99.9% of the bacteria was determined as the MBC. Susceptibility tests for ATCC isolates of Candida and other fungi were performed in BHI broth according to the NCCLS method. Two ml of MHB containing serial dilutions of the agents compounds were added to 13×100 mm tubes. An inoculum of 0.1 ml (prepared as described above) was then added to each tube. The final inoculum was approximately […]. The tubes were incubated at 35° C. in ambient air and read at 24 hours. The highest dilution at which the tubes remained clear was considered to be the MIC.
(§4) The MBC was determined as follows: After 48 hours incubation, tubes without visible growth were vortexed. A sample of 0.01 ml was taken from each tube and streaked on trypticase soy agar plates. After 24 hours, incubation, the number of colonies was counted. The amount of agent required to kill 99.9% of bacterial inoculum in the inoculum was determined as the MBC. Susceptibility tests for Mycobacteria were performed according to standard methods at the national Institutes of Health.
(§5) Compounds of the invention were dissolved in 1 ml of methanol and stored in aliquots at −70° C. They were diluted in Mueller-Hinton broth for final screening. Compositions were tested in 0.1 ml volumes by serial dilution in microtiter plates against Staphylococcus aureus methicillin-sensitive ATCC 29213 and the methicillin-resistant wild type T67738, as described above. The T67738 was resistant to most antimicrobial drugs, including ciprofloxacin.

[2] = system: Staphylococcus aureus methicillin-resistant wild type T67738; experiment: Susceptibility test (MIC, microtiter serial dilution), methicillin-resistant S. aureus; type: cell-based; details: MIC by serial dilution in Mueller-Hinton broth
Procedure: as §1, §2, §3, §4, §5

Mycobacteria = experiment: Susceptibility tests for Mycobacteria (standard methods, National Institutes of Health); type: cell-based
Procedure: as §4

bacterial pathogens = details: background statement; cited from earlier work

## OC(c1cc(-c2ccc(Cl)cc2)nc2ccccc12)C1CCCCN1 (centres unmarked) [#7929]
[1]
  Effective Concentration S. aureous Sens.: 6.25 µg/mL
[2]
  Effective Concentration S. aureous Resist.: 6.25 µg/mL

## OC(c1cc(-c2ccccc2)nc2c(Cl)cc(Cl)cc12)C1CCCCN1 (centres unmarked) [#7930]
[1]
  Effective Concentration S. aureous Sens.: <.08 µg/mL
[2]
  Effective Concentration S. aureous Resist.: 1.6 µg/mL
Mycobacteria
  Effective Concentration Mycobacteria: 2 µg/mL

## OC(c1cc(-c2ccc(Cl)cc2)nc2c(Cl)cc(Cl)cc12)C1CCCCN1 (centres unmarked) [#7936]
[1]
  Effective Concentration S. aureous Sens.: <0.8 µg/mL
[2]
  Effective Concentration S. aureous Resist.: <0.8 µg/mL

## CCC1CN2CCC1CC2C(O)c1ccnc2ccc(OC)cc12 (centres unmarked) [#112312]
[1]
  Effective Concentration S. aureous Sens.: 1.56 µg/mL
[2]
  Effective Concentration S. aureous Resist.: 1.56 µg/mL
Mycobacteria
  Effective Concentration Mycobacteria: 128 µg/mL

## CCCC(CCC)NCC(O)c1cc(-c2ccc(Cl)cc2)nc(-c2ccc(Cl)cc2)c1 (centres unmarked) [#153136]
[2]
  Effective Concentration S. aureous Resist.: 3.0 µg/mL

## OC(c1cc(-c2ccc(C(F)(F)F)cc2)nc(-c2ccc(C(F)(F)F)cc2)c1)C1CCCCN1 (centres unmarked) [#153141]
Mycobacteria
  Effective Concentration Mycobacteria: 0.5 µg/mL

## COc1cc(C(F)(F)F)c2nc(C(F)(F)F)cc(C(O)C3CCCCN3)c2c1 (centres unmarked) [#159314]
[1]
  Effective Concentration S. aureous Sens.: 6.25 µg/mL
[2]
  Effective Concentration S. aureous Resist.: 3.1 µg/mL

## O=C(c1cc(-c2ccccc2)nc2c(Cl)cc(Cl)cc12)C1CCCCN1 (centres unmarked) [#169446]
[1]
  Effective Concentration S. aureous Sens.: 1.6 µg/mL
[2]
  Effective Concentration S. aureous Resist.: 1.6 µg/mL
Mycobacteria
  Effective Concentration Mycobacteria: 2 µg/mL

## COc1ccc2nc(-c3ccc(Cl)c(Cl)c3)cc(C(O)C3CCCCN3)c2c1 (centres unmarked) [#259398]
[1]
  Effective Concentration S. aureous Sens.: 1.56 µg/mL
[2]
  Effective Concentration S. aureous Resist.: 1.56 µg/mL

## OC(c1cc(C(F)(F)F)nc2c(C(F)(F)F)cccc12)C1CCCCN1 (centres unmarked) [Mefloquine]
Bacterial pathogens
  activity against bacterial pathogens in vitro: some activity
